# Results as given in ChEMBL document CHEMBL1201862, “PubChem BioAssay data set” (2004).
# Activity calls are given as the source filed them. Rule as the data show it, for most assays here: actives have a measured EC50 and inactives only a lower limit.
# Key:
# [1] = Luminescence Cell-Based Dose Retest to Confirm Inhibitors of Cancer Stem Cells. [Related pubchem assays (depositor defined):AID2717, AID2721]; type: functional; settings: Homo sapiens
# [2] = viability of uninfected HEp-2 cells – cell-based, HTS, cytotoxicity control for RSV inhibitor project, dose response (AID 2410); type: functional; settings: human respiratory syncytial virus
# [3] = biological target: Luciferin 4-monooxygenase (Photinus pyralis, UniProt P08659); assay: inhibition of purified Photinus pyralis luciferase – biochemical, luminescence, dose response (AID 1891)
# Luciferin 4-monooxygenase, sequence (P08659 whole entry): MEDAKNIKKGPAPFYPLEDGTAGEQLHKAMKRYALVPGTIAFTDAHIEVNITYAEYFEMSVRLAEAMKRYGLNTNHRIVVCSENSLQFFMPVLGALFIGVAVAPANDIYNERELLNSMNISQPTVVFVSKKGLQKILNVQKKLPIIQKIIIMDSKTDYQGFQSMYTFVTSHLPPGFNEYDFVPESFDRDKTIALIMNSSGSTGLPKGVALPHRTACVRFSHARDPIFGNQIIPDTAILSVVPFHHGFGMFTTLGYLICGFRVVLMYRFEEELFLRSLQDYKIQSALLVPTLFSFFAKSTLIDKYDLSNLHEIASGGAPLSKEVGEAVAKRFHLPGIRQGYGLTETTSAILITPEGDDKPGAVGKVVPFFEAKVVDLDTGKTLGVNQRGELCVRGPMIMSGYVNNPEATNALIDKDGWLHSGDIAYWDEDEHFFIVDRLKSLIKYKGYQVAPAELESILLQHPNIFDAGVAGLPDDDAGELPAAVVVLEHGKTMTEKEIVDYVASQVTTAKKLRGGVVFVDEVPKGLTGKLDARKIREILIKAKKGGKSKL
# [4] = Luminescence Cell-Based Dose Confirmation HTS to Identify Inhibitors of Platelet Dense Granule Release. [Related pubchem assays: 1663 (Primary HTS), 1678 (Summary of Project)]; type: functional
# [5] = biological target: T1, Rac GTPase-activating protein 1 (Homo sapiens, UniProt Q9H0H5); assay: blockers of MgcRacGAP-driven Rac1 GTP hydrolysis – biochemical, ADP Hunter fluorescence, primary and confirmatory, confirmation (AID 624330); type: functional
# T1 sequence (Q9H0H5 whole entry): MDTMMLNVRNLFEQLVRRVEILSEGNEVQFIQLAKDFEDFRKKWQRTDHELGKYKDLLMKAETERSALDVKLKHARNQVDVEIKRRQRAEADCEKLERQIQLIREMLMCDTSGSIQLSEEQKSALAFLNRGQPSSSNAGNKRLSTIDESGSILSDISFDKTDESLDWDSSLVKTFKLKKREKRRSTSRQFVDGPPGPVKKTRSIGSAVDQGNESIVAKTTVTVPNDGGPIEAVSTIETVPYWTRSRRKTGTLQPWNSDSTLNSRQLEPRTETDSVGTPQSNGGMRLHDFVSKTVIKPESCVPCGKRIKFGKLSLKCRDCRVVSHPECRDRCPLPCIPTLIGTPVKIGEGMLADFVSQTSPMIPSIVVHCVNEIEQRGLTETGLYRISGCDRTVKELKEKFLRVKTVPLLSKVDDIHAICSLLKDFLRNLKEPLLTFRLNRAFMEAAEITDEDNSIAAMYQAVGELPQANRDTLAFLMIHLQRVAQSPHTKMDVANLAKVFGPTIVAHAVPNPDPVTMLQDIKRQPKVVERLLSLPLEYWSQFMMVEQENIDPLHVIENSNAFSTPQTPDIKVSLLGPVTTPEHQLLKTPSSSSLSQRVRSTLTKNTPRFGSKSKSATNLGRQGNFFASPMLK
# [6] = Luminescence Cell-Based Dose Response HTS to Identify Activators of Luciferase Translation or Activity in H4 […] Cells. [Related pubchem assays: 1829 (Project Summary), 1814 (Primary HTS)]; type: functional
# H4 = assay: Luminescence Cell-Based Dose Response HTS to Identify Activators of 5'UTR Stem-Loop Driven Prion Protein mRNA Translation in H4 Neuroglioblastoma Cells. [Related pubchem assays: 1829 (Project Summary), 1814 (Primary HTS)]; type: functional; settings: Homo sapiens
# [7] = Trypanosoma cruzi growth suppression in host cells – NIH3T3 host cells, beta-gal luminescence, confirmation (AID 2044); type: functional, cell-based;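 also: intracellular parasites grown in NIH/3T3 mouse fibroblasts as host cells; luminescent beta-galactosidase reporter signal from transgenic T. cruzi replicating inside host cells; inhibitors lower the luminescence signal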
# [8] = NIH3T3 cell viability loss – ATP luminescence, mouse fibroblasts, counter-screen, dose response (AID 2010); type: functional, cell-based;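 also: cells exposed to compound for about 90 hours before reading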
# [9] = biological target: T2, Heat shock factor protein 1 (Mus musculus, UniProt P38532); assay: enhancement of HSF1-driven luciferase signal – cell-based, NIH3T3, luminescence, dose retest, confirmation (AID 435004); type: functional;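 also: stress induced by proteasome inhibitor MG132 added 30 min after compound; luciferase reporter driven by HSF1 response element in NIH3T3 cells; actives raise luminescence as potentiators of the MG132 stress response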
# T2 sequence (P38532 whole entry): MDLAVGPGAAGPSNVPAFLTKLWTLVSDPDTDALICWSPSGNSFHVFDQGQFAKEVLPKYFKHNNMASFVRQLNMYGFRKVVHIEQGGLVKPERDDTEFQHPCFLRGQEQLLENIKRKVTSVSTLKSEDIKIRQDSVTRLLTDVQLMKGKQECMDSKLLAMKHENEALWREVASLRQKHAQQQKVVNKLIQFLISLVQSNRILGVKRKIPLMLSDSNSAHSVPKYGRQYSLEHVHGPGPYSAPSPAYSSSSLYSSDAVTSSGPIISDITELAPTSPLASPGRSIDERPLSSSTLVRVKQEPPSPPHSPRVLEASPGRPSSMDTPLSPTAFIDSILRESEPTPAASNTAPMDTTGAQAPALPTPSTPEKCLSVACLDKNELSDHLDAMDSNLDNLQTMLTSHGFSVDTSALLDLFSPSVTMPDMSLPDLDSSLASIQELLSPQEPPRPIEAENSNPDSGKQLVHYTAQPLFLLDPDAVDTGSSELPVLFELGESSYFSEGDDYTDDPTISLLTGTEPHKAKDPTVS
# Cytochrome P450 3A4 = Cytochrome P450 3A4 (Homo sapiens, UniProt P08684);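 also: CYP3A4 tested as one member of a cytochrome P450 panel screen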
# Cytochrome P450 3A4, sequence (P08684 whole entry): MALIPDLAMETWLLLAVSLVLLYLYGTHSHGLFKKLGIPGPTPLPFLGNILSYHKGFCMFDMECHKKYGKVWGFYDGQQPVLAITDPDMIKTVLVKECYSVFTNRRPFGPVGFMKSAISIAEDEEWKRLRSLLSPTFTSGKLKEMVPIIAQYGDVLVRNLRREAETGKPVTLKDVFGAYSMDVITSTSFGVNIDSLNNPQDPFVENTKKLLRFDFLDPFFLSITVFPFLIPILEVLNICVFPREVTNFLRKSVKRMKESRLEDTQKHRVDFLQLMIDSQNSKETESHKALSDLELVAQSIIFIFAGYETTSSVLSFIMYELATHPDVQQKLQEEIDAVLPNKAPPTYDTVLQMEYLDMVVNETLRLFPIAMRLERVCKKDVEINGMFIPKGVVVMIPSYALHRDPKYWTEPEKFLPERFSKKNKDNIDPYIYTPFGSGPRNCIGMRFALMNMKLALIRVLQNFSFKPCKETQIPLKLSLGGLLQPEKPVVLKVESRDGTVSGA
# [10] = biological target: T3, Corticotropin-releasing factor receptor 2/Corticotropin-releasing factor-binding protein (Homo sapiens, UniProt P24387+Q13324); assay: Dose Response confirmation of uHTS hits for small molecule antagonists of the CRF-binding protein and CRF-R2 receptor complex.; type: functional; settings: read-out: IC50_Mean
# T3 sequence (Q13324 whole entry): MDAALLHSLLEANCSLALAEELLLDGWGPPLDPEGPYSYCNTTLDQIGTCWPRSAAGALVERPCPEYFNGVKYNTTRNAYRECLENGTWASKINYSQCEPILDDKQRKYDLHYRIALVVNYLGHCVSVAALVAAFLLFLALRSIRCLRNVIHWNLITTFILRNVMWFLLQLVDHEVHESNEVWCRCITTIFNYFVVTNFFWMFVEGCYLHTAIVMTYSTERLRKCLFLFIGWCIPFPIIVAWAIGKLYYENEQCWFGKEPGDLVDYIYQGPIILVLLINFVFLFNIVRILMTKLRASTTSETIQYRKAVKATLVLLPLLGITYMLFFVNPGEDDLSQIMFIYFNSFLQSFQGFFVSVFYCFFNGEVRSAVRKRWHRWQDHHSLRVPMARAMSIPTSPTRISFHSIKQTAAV
# T3 sequence (P24387 whole entry): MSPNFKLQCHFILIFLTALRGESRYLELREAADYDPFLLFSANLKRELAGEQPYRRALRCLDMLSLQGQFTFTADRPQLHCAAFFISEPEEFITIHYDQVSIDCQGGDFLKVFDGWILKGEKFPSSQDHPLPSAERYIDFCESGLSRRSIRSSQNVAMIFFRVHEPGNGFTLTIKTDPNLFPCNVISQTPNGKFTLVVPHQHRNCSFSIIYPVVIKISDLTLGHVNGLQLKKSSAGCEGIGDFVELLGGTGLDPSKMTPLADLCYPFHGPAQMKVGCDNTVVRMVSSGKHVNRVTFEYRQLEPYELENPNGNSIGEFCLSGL
# [11] = biological target: T3, Corticotropin-releasing factor receptor 2/Corticotropin-releasing factor-binding protein; assay: activators of CRF receptor 2 with binding protein – uHTS hits, confirmation (AID 602473); type: functional; settings: read-out: EC50_Mean
# [12] = Luminescence Cell-Based Dose Response HTS to Identify Inhibitors of 5'UTR Stem-Loop Driven Prion Protein mRNA Translation in H4 Neuroglioblastoma Cells. [Related pubchem assays: 1827 (Project Summary), 1813 (Primary HTS)]; type: functional
compound,measurement,setting,value
CC(C)CCNc1nc(-c2ccco2)c2c(c1C#N)CCCC2,AC50,[1],10.4 µM (active)
COc1ccccc1C(=O)Nc1ccc(S(=O)(=O)N(C)c2ccccc2)cc1,CC50,[2],29.4 µM (active)
Cc1ccc(-c2nc3ccccc3[nH]2)s1,EC50,[3],0.951 µM (active)
same,EC50,[4],7.89 µM (active)
CCN1CCN(CCOc2ccccc2OCc2ccccc2)CC1,IC50,[5],94.5 µM (active)
COc1ccc(C(=O)Nc2ccccc2C(=O)N/N=C/c2ccncc2)cc1OC,EC50,[3],0.609 µM (active)
same,EC50,[4],0.564 µM (active)
Cc1ccc(OCCn2cc(/C=C(\C#N)C(=O)NCC3CCCO3)c3ccccc32)cc1 (centres undefined),CC50,[2],38.7 µM (active)
Cc1ccc(C2(CCNCc3ccc(N(C)C)cc3)CCOC(C(C)C)C2)cc1 (centres undefined),CC50,[2],12.6 µM (active)
O=c1oc(Nc2cccc(Cl)c2)nc2ccccc12,EC50,[3],37.7 µM (active)
same,EC50,[4],16 µM (active)
CCCCC(=O)Nc1nc(C)c(-c2csc(Nc3cc(Cl)ccc3OC)n2)s1,CC50,[2],26.5 µM (active)
COc1cc([C@H]2OC[C@H]3[C@@H]2CO[C@H]3c2ccc(O)c(OC)c2)ccc1O [PINORESINOL],IC50,[5],171 µM (active)
COc1cc(/C=N\NC(=O)CNC(=O)C(c2ccccc2)c2ccccc2)ccc1O,IC50,[5],54.6 µM (active)
COc1ccc(/C=C/C2=NC(=C\N(C)C)/C(=O)O2)cc1,EC50,[6],11.2 µM (active)
same,EC50,H4,8.24 µM (active)
COc1cc(/C=N/NC(=O)c2ccoc2C)ccc1O,IC50,[5],27.3 µM (active)
Cc1ccccc1-n1c(C)nnc1SCc1nc2ccccc2s1,EC50,[6],33.1 µM (active)
CSc1ccc(/C=N/NC(=O)c2cc(O)cc(O)c2)cc1,EC50,[3],1.22 µM (active)
same,EC50,[4],10 µM (active)
Oc1ccc(/C=C/c2ccc3ccccc3n2)cc1,CC50,[2],19.7 µM (active)
same,EC50,[3],0.161 µM (active)
same,EC50,[4],0.235 µM (active)
same,IC50,[5],28 µM (active)
COc1ccc(NC(=O)CC2C(=O)N(C)C(=S)N2CCc2ccccc2)cc1 (centres undefined),CC50,[2],18 µM (active)
[2H]c1c([2H])c([2H])c(-c2nc(N3CCCCCC3)sc2C(=O)c2ccccc2)c([2H])c1[2H],CC50,[2],41.6 µM (active)
CCN(CC)c1nc(SCCOC(=O)Nc2ccccc2)nc(N(CC)CC)n1,EC50,[7],1.73 µM (active)
same,EC50,[8],> 60 µM (not active)
same,AC50,[1],2.79 µM (active)
COc1cc(/C=C/C(=O)OCC(=O)N2CCC(Cc3ccccc3)CC2)ccc1O,IC50,[5],47.7 µM (active)
O=C(CSc1ccc(-c2ccccc2)nn1)N1CCCCC1,EC50,[6],25.4 µM (active)
same,EC50,H4,65.2 µM (active)
O=C(COc1ccc(Br)cc1CO)Nc1ccccc1F,CC50,[2],35.2 µM (active)
COc1ccc(C)cc1NC(=O)C(NCC(O)c1ccccc1)c1ccccc1 (centres undefined),IC50,[5],96.8 µM (active)
O=C(/C=C/c1c(F)cccc1Cl)Nc1nc2ccccc2[nH]1,EC50,[6],0.14 µM (inconclusive)
same,EC50,H4,10.4 µM (active)
COc1ccc(OC)c(Nc2nc(NCc3ccco3)c3ccccc3n2)c1,EC50,[3],18.7 µM (active)
same,EC50,[4],49 µM (active)
CCCCn1c(N)c(N(CC(C)C)C(=O)c2ccc(Br)s2)c(=O)[nH]c1=O,EC50,[3],> 112 µM (not active)
same,EC50,[4],> 112 µM (not active)
COc1cc(/C=N/NC(=O)/C(=C\c2ccc3c(c2)OCO3)NC(=O)c2ccccc2)ccc1O,IC50,[5],79.4 µM (active)
COc1ccccc1N(Cc1ccccc1)S(=O)(=O)c1cccc(C(=O)Nc2ccc(C)cn2)c1,CC50,[2],11 µM (active)
same,EC50,[7],1.58 µM (active)
same,EC50,[8],> 30 µM (not active)
S=C(NCC1CC1)N/N=C/c1ccccc1Cl,EC50,[3],> 112 µM (not active)
same,EC50,[4],> 112 µM (not active)
O=C(O)c1ccc(-c2noc(-c3ccccc3F)n2)cc1,EC50,[3],1.45 µM (active)
same,EC50,[4],1.6 µM (active)
O=C(CN1CCN(C2CCCCC2)CC1)Nc1ccccc1-c1ccccc1,IC50,[5],78.1 µM (active)
COc1cc(C(=O)N2CCN(c3ccc([N+](=O)[O-])cc3)CC2)ccc1OCc1c(C)noc1C,EC50,[3],40.2 µM (active)
same,EC50,[4],> 112 µM (not active)
COc1ccc(Br)cc1CN1CCC(N2CCCC2)CC1,IC50,[5],59.6 µM (active)
Cc1cc2nnc(SC(C)C)n2c2ccccc12,CC50,[2],> 50 µM (active)
CCc1ccc(NC(=O)Nc2ccsc2C(=O)OC)cc1,EC50,[3],0.701 µM (active)
same,EC50,[4],2.06 µM (active)
Cc1ccc(C(C)C)c(OCCCCN2CCNCC2)c1,IC50,[5],87.9 µM (active)
CCCn1c(C)nc2c(c1=O)c1nc3ccccc3nc1n2CCC1=CCCCC1,EC50,[9],> 260 µM (inactive)
same,AC50,Cytochrome P450 3A4,3.16 µM (inconclusive)
CC(CCc1ccco1)NC(=O)CCc1nnc2ccc(NCc3ccccc3)nn12 (centres undefined),EC50,[3],> 112 µM (not active)
same,EC50,[4],> 112 µM (not active)
same,IC50,[10],> 47.1 µM (inactive)
same,EC50,[11],> 53 µM (inactive)
O=C(CCN1Cc2ccccc2C1)c1ccc2c(c1)OCCO2,AC50,[1],11.5 µM (active)
CCc1nnc(S)n1/N=C/c1c(C)nn(-c2ccccc2)c1Cl,EC50,[12],19 µM (active)
